Experimental findings from ChEMBL document CHEMBL3425417, “Synthesis and Structure-Activity Relationship Study of 1-Phenyl-1-(quinazolin-4-yl)ethanols as Anticancer Agents” (ACS Med Chem Lett, 2015) are described below.

The test system of test [1] is A549. The test can be described thus: Cytotoxicity against human A549 cells assessed as growth inhibition after 72 hrs by CellTiter 96 Aqueous one solution cell proliferation assay. The class given is functional, cell-based. Conditions: for IC50: A549, 72 h.
In test [2] the test system is A549. The test can be described thus: Cell cycle arrest in human A549 cells assessed as accumulation at G2/M phase after 24 hrs by propidium iodide staining-based flow cytometric analysis. The class given is functional. Background: A flow cytometer gives signals particle by particle.
For test [3], the system named is A549. The test can be described thus: Induction of microtubule destabilization in human A549 cells at 4 uM by DAPI-staining-based fluorescence microscopic analysis. The test is classed as cell-based.
In test [4] the target is T1, Tubulin (Homo sapiens) (UniProt P68371+Q9H4B7+P0DPH7+P68366+Q13509+Q71U36+P04350+Q3ZCM7+P07437+P68363+Q9BQE3+Q6PEY2+Q13885+Q9BVA1+Q9BUF5). The test can be described thus: Inhibition of tubulin (unknown origin) polymerization at 3 to 10 uM by fluorescence assay. The class given is protein-complex assay.
The target in test [5] is T1, Tubulin (Homo sapiens). The test can be described thus: Displacement of colchicine from tubulin (unknown origin) preincubated for 30 mins followed by colchicine addition measured after 30 mins by fluorescence assay. The class given is protein-complex assay.
Test [6] relates to A549. The test can be described thus: Induction of microtubule destabilization in human A549 cells at 45 nM by DAPI-staining-based fluorescence microscopic analysis. The class given is cell-based.
The target of test [7] is T1, Tubulin (Homo sapiens). The test can be described thus: Inhibition of tubulin (unknown origin) polymerization at 10 uM by fluorescence assay. The class given is protein-complex assay.
Test [8] addresses T1, Tubulin (Homo sapiens). Conditions: 45 uM.
Description: Displacement of colchicine from tubulin (unknown origin) at 45 uM preincubated for 30 mins followed by colchicine addition measured after 30 mins by fluorescence assay
Test [9] has as its system NCI-H460. The test can be described thus: Cytotoxicity against human NCI-H460 cells assessed as growth inhibition after 72 hrs by CellTiter 96 Aqueous one solution cell proliferation assay. The class given is functional, cell-based. The note with it: NCI-H460, 72 h.
Test [10] in a line: Cytotoxicity against human HCT116 cells assessed as growth inhibition after 72 hrs by CellTiter 96 Aqueous one solution cell proliferation assay. The test is classed as functional, cell-based. Conditions: HCT-116, 72 h.
The test system of test [11] is MCF7. The test can be described thus: Cytotoxicity against human MCF7 cells assessed as growth inhibition after 72 hrs by CellTiter 96 Aqueous one solution cell proliferation assay. The test is classed as functional, cell-based. Conditions: MCF7, 72 h.
The nature of test [12]: Cytotoxicity against human PC3 cells assessed as growth inhibition after 72 hrs by CellTiter 96 Aqueous one solution cell proliferation assay. Conditions: PC-3, 72 h. The class given is functional, cell-based.
Test [13] relates to HeLa. The test can be described thus: Cytotoxicity against human HeLa cells assessed as growth inhibition after 72 hrs by CellTiter 96 Aqueous one solution cell proliferation assay. The test is classed as functional, cell-based.
For test [14], the system named is A549. The test can be described thus: Cell cycle arrest in human A549 cells assessed as accumulation at G1 phase at 0.3 uM after 24 hrs by propidium iodide staining-based flow cytometric analysis (reference value: 75.9%). The test is classed as functional.
Test [15] relates to A549. The test can be described thus: Cell cycle arrest in human A549 cells assessed as accumulation at G2/M phase at 0.3 uM after 24 hrs by propidium iodide staining-based flow cytometric analysis (reference value: 16.5%). The test is classed as functional.
Test [16] concerns A549. The test can be described thus: Cell cycle arrest in human A549 cells assessed as accumulation at G1 phase at 1 uM after 24 hrs by propidium iodide staining-based flow cytometric analysis (reference value: 75.9%). The test is classed as functional.
In test [17] the test system is A549. The test can be described thus: Cell cycle arrest in human A549 cells assessed as accumulation at G2/M phase at 1 uM after 24 hrs by propidium iodide staining-based flow cytometric analysis (reference value: 16.5%). The test is classed as functional.
In test [18] the test system is A549. The test can be described thus: Cell cycle arrest in human A549 cells assessed as accumulation at G1 phase at 3 uM after 24 hrs by propidium iodide staining-based flow cytometric analysis (reference value: 75.9%). The test is classed as functional.
Test [19] relates to A549. The test can be described thus: Cell cycle arrest in human A549 cells assessed as accumulation at G2/M phase at 3 uM after 24 hrs by propidium iodide staining-based flow cytometric analysis (reference value: 16.5%). The test is classed as functional.

Calls of active or inactive are those of the source. The rule behind the calls is not given here.

As for `CN(C)c1ccc(C(C)(O)c2ncnc3ccccc23)cc1` (configuration not stated), the IC50 – broadly, the concentration at which inhibition is half-maximal – in test [1] was 1300 nM. Regarding `COc1ccc(C(C)(O)c2ncnc3ccccc23)cc1` (racemic) [listing 1 of 2 here], the Activity entry in test [2] was “Dose-dependent effect”. For the same compound, the outcome in test [3] was Active. Besides, the inhibition result in test [4] was “Active”. For the same compound, in [5], the inhibition result was “Dose-dependent effect”. On to `CC(O)(c1ccc(OC(F)(F)F)cc1)c1ncnc2ccccc12` (configuration not stated), for which the half-maximal inhibitory concentration (IC50) in test [1] was over 25000 nM. For `CCCOc1nc(C(C)(O)c2ccc(OC)cc2)c2ccccc2n1` (configuration not stated), the half-inhibitory concentration (IC50) in [1] worked out at 1200 nM. As to `CC(O)(c1ccc(C(F)(F)F)cc1)c1ncnc2ccccc12` (configuration not stated), the half-maximal inhibitory concentration (IC50) in test [1] is over 25000 nM. As for `CC(O)(c1ccc2c(c1)OCO2)c1ncnc2ccccc12` (configuration not stated), the 50% inhibitory concentration (IC50) in [1] was determined as 20000 nM. Consider `COc1cc(C(C)(O)c2ncnc3ccccc23)cc(OC)c1OC` (configuration not stated), for which the IC50 in [1] is over 25000 nM. The same measure, in the same setting: the result for `COc1ccc(C(C)(O)c2nc(N3CCC(C)CC3)nc3ccccc23)cc1` (configuration not stated) reads 19000 nM; that for `COc1ccc(C(C)(O)c2nc(N3CCCCC3)nc3ccccc23)cc1` (configuration not stated), 2700 nM.

For `CCOc1ccc(C(=O)c2ncnc3ccccc23)cc1`, in test [1], the concentration for half-maximal inhibition (IC50) was over 25000 nM. On the same count and under the same terms, the result for `COc1ccc(C(C)(O)c2nc(-c3cccc(Cl)c3)nc3ccccc23)cc1` (configuration not stated) reads 2100 nM; that for `COc1ccc(C(C)(O)c2nc(C(Cl)(Cl)Cl)nc3ccccc23)cc1` (configuration not stated), 38 nM.

For the compound `COc1cccc(C(C)(O)c2ncnc3ccccc23)c1` (configuration not stated), the 50% inhibitory concentration (IC50) in [1] was over 25000 nM. Same read-out and setting: the result for `COc1ccc(C(C)(O)c2nc(-c3ccsc3)nc3ccccc23)cc1` (configuration not stated) reads 35 nM; that for `CC(O)(c1ccc(F)cc1)c1ncnc2ccccc12` (configuration not stated), over 25000 nM; that for `CSc1ccc(C(C)(O)c2ncnc3ccccc23)cc1` (configuration not stated), 340 nM. In the case of `COc1ccc(C(C)(O)c2nc(C)nc3ccccc23)cc1` (configuration not stated), in test [1], the IC50 stood at 53 nM. Same read-out and setting: the figure for `CNc1ccc(C(C)(O)c2ncnc3ccccc23)cc1` (configuration not stated) is 4100 nM; for `COc1ccc(C(O)c2ncnc3ccccc23)cc1` (configuration not stated) it is over 25000 nM. The same measure, in the same setting: the result for `COc1ccc(C(C)(O)c2nc(Cl)nc3ccccc23)cc1` (configuration not stated) reads 27 nM. As for `COc1cc2c(c(OC)c1OC)-c1ccc(OC)c(=O)cc1[C@@H](NC(C)=O)CC2`, the outcome in test [6] was Active.

Take `CC(O)(c1cccc(OCc2ccccc2)c1)c1ncnc2ccccc12` (configuration not stated): the IC50 in [1] is over 25000 nM. On the same count and under the same terms, the result for `CCOc1nc(C(C)(O)c2ccc(OC)cc2)c2ccccc2n1` (configuration not stated) reads 340 nM. Still for that read-out and setting: the result for `COc1ccc(C(C)(O)c2nc(OC)nc3ccccc23)cc1` (configuration not stated) reads 58 nM. On the same count and under the same terms, the figure for `CCC(O)(c1ccc(OC)cc1)c1ncnc2ccccc12` (configuration not stated) is 1800 nM. With `CC[C@]1(O)C[C@@H]2CN(CCc3c([nH]c4ccccc34)[C@@](C(=O)OC)(c3cc4c(cc3OC)N(C)[C@H]3[C@@](O)(C(=O)OC)[C@H](OC(C)=O)[C@]5(CC)C=CCN6CC[C@]43[C@@H]65)C2)C1`, the inhibition entry in test [5] is “inactive”.

In the case of `COc1ccc(C(C)(O)c2nc(-c3ccccc3)nc3ccccc23)cc1` (configuration not stated), the 50% inhibitory concentration (IC50) in test [1] was 100 nM. In addition, in test [7], the inhibition result was “Active”.

As for `COc1ccc(C(C)(O)c2nc(-c3ccc(Cl)cc3)nc3ccccc23)cc1` (configuration not stated), the 50% inhibitory concentration (IC50) in test [1] amounted to 400 nM. For `COc1ccc(C(C)(O)c2nc(-c3ccccc3Cl)nc3ccccc23)cc1` (configuration not stated), the IC50 in test [1] stood at 780 nM. With `COc1ccc(C(C)(O)c2nc(Oc3ccccc3)nc3ccccc23)cc1` (configuration not stated), the IC50 in test [1] turned out to be 3300 nM. Still for that read-out and setting: the figure for `C=CCOc1nc(C(C)(O)c2ccc(OC)cc2)c2ccccc2n1` (configuration not stated) is 410 nM; for `COc1ccc(C(=O)c2ncnc3ccccc23)cc1` it is 20000 nM; for `COc1ccc(C(C)(O)c2nc(N3CCN(c4ccc(F)cc4)CC3)nc3ccccc23)cc1` (configuration not stated) it is 1900 nM. Turning to `CC(O)(c1cccc(O)c1)c1ncnc2ccccc12` (configuration not stated), the concentration for half-maximal inhibition (IC50) in [1] was over 25000 nM.

As for `COc1ccc(C(C)(O)c2nc(Nc3ccccc3)nc3ccccc23)cc1` (configuration not stated), the IC50 in [1] was determined as 2700 nM. Still for that read-out and setting: the result for `CC(O)(c1ccccc1)c1ncnc2ccccc12` (configuration not stated) reads over 25000 nM; that for `CCOc1ccc(C(C)(O)c2ncnc3ccccc23)cc1` (configuration not stated), 300 nM; that for `COc1ccc(C(O)(Cc2ccccc2)c2ncnc3ccccc23)cc1` (configuration not stated), 9800 nM. Still for that read-out and setting: the result for `COc1ccc(C(C)(O)c2nc(N3CCOCC3)nc3ccccc23)cc1` (configuration not stated) reads 170 nM. Same read-out and setting: the figure for `CC(O)(c1ccc(Cl)cc1)c1ncnc2ccccc12` (configuration not stated) is over 25000 nM. As for `COc1ccc(C(C)(O)c2nc(OC)c3ccccc3n2)cc1` (configuration not stated), in test [1], the IC50 amounted to 2000 nM.

With `COC(=O)Nc1nc2cc(C(=O)c3cccs3)ccc2[nH]1`, the inhibition entry in [8] was “Active”.

In the case of `COc1ccc(C(C)(O)c2ncnc3ccccc23)cc1` (racemic) [listing 2 of 2 here], the 50% inhibitory concentration (IC50) in [1] was 270 nM; in [9], 100 nM; in test [10], 100 nM; in test [11], 100 nM; in [12], 100 nM; in test [13], 100 nM. Moreover, the Activity in test [14] was 56.9%; in test [15], 35.3%; in test [16], 23.7%; in [17], 68.6%; in test [18], 18.3%; in [19] it was 75.9%.

As to `COc1ccc(C(C)(O)c2nc(SC)nc3ccccc23)cc1` (configuration not stated), the 50% inhibitory concentration (IC50) in [1] amounted to 67 nM.

On to `COc1ccc(C(C)(O)c2nc(N(C)C)nc3ccccc23)cc1` (configuration not stated), for which, in test [1], the IC50 is 210 nM.

Regarding `COc1ccc(C(C)(O)c2ncnc3ccccc23)cc1` (single isomer, unassigned; (-)), the “growth inhibition (GI)” value in test [1] was “Active”. Further, the inhibition result in test [4] was “Active”. As to `COc1ccc(C(C)(O)c2ncnc3ccccc23)cc1` (stereo in doubt; (+)-1a), the “growth inhibition (GI)” value in test [1] was “Active”. Moreover, the inhibition result in test [4] was “Active”.

`COc1ccc(C(C)(O)c2ncnc3ccccc23)cc1OC` (configuration not stated): the IC50 in test [1] worked out at 21000 nM. On the same count and under the same terms, the figure for `COc1ccc(C(O)(c2ncnc3ccccc23)C(F)(F)F)cc1` (configuration not stated) is 1100 nM. On to `COc1ccc(C(C)(O)c2nc(=O)[nH]c3ccccc23)cc1` (configuration not stated), for which the concentration for half-maximal inhibition (IC50) in test [1] was over 25000 nM.
